# Laboratory results from patent publication US8501816B2, “Antitussive compositions comprising memantine” (Cerecor, Inc., priority 2010, dated 2013).
# Entries after “also recorded” stand apart in the source; their conditions may differ. Marks after values point to notes of the source that are not given here.
# What was measured:
# H3-receptor = details: hypothalamus, after 5 mg/kg twice daily for 5 days; cited from earlier work
# NMDA receptors = details: cited from earlier work
# native NMDA receptors = details: in vitro; cited from earlier work
# [1] = around pH 6.0; cited from earlier work
# [2] = Sedation and side effects observed in the cough studies
# bradykinin induced cough = assay: Bradykinin induced cough in conscious guinea pigs; assay type: in vivo, guinea pig
# Protocol: (§1) Using a similar chamber and nebulizer system, animals were treated first with aerosolized peptidase inhibitors (captopril 0.1 μM and thiorphan 0.1 μM, 5 minutes nebulization) to reduce bradykinin degradation and enhance tussive responses evoked by bradykinin (unpublished observations). Animals were then exposed to increasing concentrations of aerosolized bradykinin (0.1-3 mg/mL), again for 5 minute periods. Coughs are counted during this and the subsequent 5 minutes. Pressure changes within the chamber are used to monitor respiratory rate (Biopac Systems Inc, Goleta, Calif.).
# [3] = Respiratory parameters during cough challenge; assay type: in vivo, guinea pig; details: 10 mg/kg memantine, p=0.012
# Protocol: as §1
# sigma receptor = details: cited from earlier work
# [4] = treated for dementia, recent review; cited from earlier work
# [5] = test system: citric acid induced cough; assay: Citric acid induced cough in conscious guinea pigs; details: for ≧15 Cumulative coughs/total number of guinea pigs: 1 hour pre-citric acid challenge; for Cumulative coughs evoked by citric acid, 0.1M Citric Acid / Cumulative coughs evoked by citric acid, 0.3M Citric Acid: MMT 10 mg/kg intraperitoneal
# Protocol: Male Hartley guinea pigs (200-700 g) were studied and all experiments were first approved by the institutional Animal Care and Use Committee.
# Animals were placed in a transparent chamber (Buxco Research Systems, Wilmington, N.C.) with a continuous flow of air and exposed to increasing concentrations of citric acid (0.01 M-0.3 M) is delivered by an ultrasonic nebulizer generating aerosol particles of 3-6 μm diameter. Coughs were counted during a 5 minute nebulization period and over the subsequent 5 minutes with the assistance of sound and pressure monitoring from the chamber. Respiratory rate and tidal volume were monitored throughout via a calibrated pressure transducer (Emka Technologies, Falls Church, Va.).
# Each of these drugs was administered orally in half-log increments (e.g. 3 mg/kg, 10 mg/kg, 30 mg/kg) in an unpaired experimental design (each animal received only 1 dose of drug). The drugs were administered 60 minutes prior to citric acid challenge, which consisted of 5 minute challenges with aerosols of increasing concentrations of citric acid (0.01-0.3M), with 5 minute intervals in between escalating doses of the tussive stimulus.
# Caco-2 cells = assay: Memantine in vitro intestinal permeability (Caco-2 cells); assay type: in vitro ADME; details: pH 5.0 to 10.5
# [6] = Pharmacokinetics of memantine with sodium hydroxide, menthol and NH4Cl in male beagle dogs (Example 3); assay type: in vivo, beagle dog; details: MMT 0.4 mg/kg; for Cmax/Dose: Route Oral
# [7] = male, beagle, dog, plasma, po, 0.4 mg/kg, 3.3 mg/ml sodium hydroxide + 5 mg/ml menthol
smiles,measurement,setting,value
"CC12CC3CC(C)(C1)CC(N)(C3)C2 [Memantine, 3,5-dimethyltricyclo[3.3.1.1^3,7]decan-1-amine]",density of H3-receptor binding sites increased by,H3-receptor,141±24%
same,ED50 of inhibition of ex vivo [3H]MK-801 binding,NMDA receptors,1.8 ± 1.3 mg/kg
same,potency of antagonism,native NMDA receptors,micromolar potency
same,ionization,[1],completely ionized
same,Side effects / sedation,[2]; memantine 10 mg/kg intraperitoneally,No side effects; also recorded: induced no sedation; also recorded: no sedating effects
same,Side effects,[2]; memantine 30 mg/kg,slight behavioral changes
same,Effect on number of coughs evoked by bradykinin aerosols compared to control,"bradykinin induced cough; FIG. 4, p<0.01",significantly reduced the number of coughs evoked by bradykinin
same,"Cumulative coughs, 0.3M bradykinin challenge",bradykinin induced cough; MMT 3 mg/kg i.p. 1 hour pre-bradykinin challenge,20 ± 5
same,"Cumulative coughs, 0.3M bradykinin challenge",bradykinin induced cough; MMT 10 mg/kg i.p. 1 hour pre-bradykinin challenge,1.3±0.8
same,"Cumulative coughs, 0.3M bradykinin challenge","bradykinin induced cough; MMT 10 mg/kg i.p. 1 hour pre-bradykinin challenge, listed as MMT",1.3 ± 0.8
same,"cumulative number of coughs evoked by 0.1-3 mg/mL bradykinin, median","bradykinin induced cough; memantine 10 mg/kg, controls 16 coughs",0.0 coughs
same,Change of breathing frequency induced by bradykinin,[3],small increase in breathing frequency
same,interaction with receptor,sigma receptor,does not interact
same,"adverse effects reported, share of those treated",[4],< 10%
same,≧15 Cumulative coughs/total number of guinea pigs,[5]; 0.01 mg/kg po,2/5
same,≧15 Cumulative coughs/total number of guinea pigs,[5]; 0.1 mg/kg po,1/5
same,"Cumulative numbers of cough, median, citric acid 0.01M",[5]; 1 mg/kg intraperitoneally,0.0
same,"Cumulative numbers of cough, median, citric acid 0.1M",[5]; 1 mg/kg intraperitoneally,5.0
same,"Cumulative numbers of cough, median, citric acid 0.3M",[5]; 1 mg/kg intraperitoneally,14.0
same,≧15 Cumulative coughs/total number of guinea pigs,[5]; 1 mg/kg po,2/7
same,"Cumulative numbers of cough, median, citric acid 0.01M",[5]; 3 mg/kg intraperitoneally,0.0
same,"Cumulative numbers of cough, median, citric acid 0.1M",[5]; 3 mg/kg intraperitoneally,3.0
same,"Cumulative numbers of cough, median, citric acid 0.3M",[5]; 3 mg/kg intraperitoneally,24.5
same,≧15 Cumulative coughs/total number of guinea pigs,[5]; 3 mg/kg po,0/5
same,"Cumulative numbers of cough, median, citric acid 0.01M",[5]; 10 mg/kg intraperitoneally,0.0
same,"Cumulative numbers of cough, median, citric acid 0.1M",[5]; 10 mg/kg intraperitoneally,0.0
same,"Cumulative numbers of cough, median, citric acid 0.3M",[5]; 10 mg/kg intraperitoneally,1.5*
same,Effect on cumulative number of coughs evoked by citric acid (0.01-0.3M) compared to controls,[5]; 10 mg/kg intraperitoneally,significantly reduced the cumulative number of coughs; also recorded: markedly reduced the number of cumulative coughs
same,≧15 Cumulative coughs/total number of guinea pigs,[5]; 10 mg/kg po,0/7
same,"Cumulative numbers of cough, median, citric acid 0.01M",[5]; 30 mg/kg intraperitoneally,0.0
same,"Cumulative numbers of cough, median, citric acid 0.1M",[5]; 30 mg/kg intraperitoneally,0.0*
same,"Cumulative numbers of cough, median, citric acid 0.3M",[5]; 30 mg/kg intraperitoneally,1.5*
same,Effect on cumulative number of coughs evoked by citric acid (0.01-0.3M) compared to controls,[5]; 30 mg/kg intraperitoneally,significantly reduced the cumulative number of coughs; also recorded: similarly reduced cough responses
same,≧15 Cumulative coughs/total number of guinea pigs,[5]; 30 mg/kg po,0/4
same,Effect on cumulative coughs evoked by citric acid over vehicle,[5]; 1 and 3 mg/kg,no significant effect
same,"Cumulative coughs evoked by citric acid, 0.1M Citric Acid",[5]; 0.5 hr pre-challenge,2 ± 2
same,"Cumulative coughs evoked by citric acid, 0.3M Citric Acid",[5]; 0.5 hr pre-challenge,5 ± 3
same,"Cumulative coughs evoked by citric acid, 0.1M Citric Acid",[5]; 1 hr pre-challenge,1 ± 1
same,"Cumulative coughs evoked by citric acid, 0.3M Citric Acid",[5]; 1 hr pre-challenge,7 ± 3
same,"Cumulative coughs evoked by citric acid, 0.1M Citric Acid",[5]; 2 hr pre-challenge,0 ± 0
same,"Cumulative coughs evoked by citric acid, 0.3M Citric Acid",[5]; 2 hr pre-challenge,7 ± 4
same,"Cumulative coughs evoked by citric acid, 0.1M Citric Acid",[5]; 4 hr pre-challenge,6 ± 5
same,"Cumulative coughs evoked by citric acid, 0.3M Citric Acid",[5]; 4 hr pre-challenge,15 ± 6
same,"Levels of cough, oral compared to parenteral administration",[5]; doses of 1 mg/kg or more (FIG. 8),substantially reduced levels of cough compared to parenterally administered memantine
same,time to the first cough during the citric acid challenge,"[5]; memantine 10 mg/kg vs vehicle, p=0.007",shorter for vehicle than memantine 10 mg/kg
same,Effect of single agent on citric acid (0.01-0.3M) induced cough,"[5]; oral, 60 minutes prior, memantine 3, guaifenesin 100, diphenhydramine 10, benzonatate 30, ambroxol 100 mg/kg",failed to inhibit cough
same,"Percentage of animals coughing ≧15 times, effect relative to controls","[5]; orally, doses around 0.1-1 mg/kg (FIG. 7)",reduces cough relative to controls
same,permeability in Caco-2 cells versus pH,Caco-2 cells,gradually increases with an increase in pH
same,Cmax/Dose,[6]; 3.3 mg/ml sodium hydroxide + 5 mg/ml menthol,18.16
same,Cmax/Dose,[6]; 3.3 mg/ml sodium hydroxide + 5 mg/ml menthol + 20 mg/kg NH4Cl,26.03
same,Cmax/Dose,[6]; 3.3 mg/ml sodium hydroxide + 5 mg/ml menthol + 30 mg/kg NH4Cl,9.18
same,Cmax/Dose,[6]; Control,7.91
same,AUC(0-inf),[6]; [7],126 ng·h/mL
same,AUC(0-t),[6]; [7],113 ng·h/mL
same,Cmax,[6]; [7],77 ng/mL
same,Tmax,[6]; [7],0.2 h
same,half-life,[6]; [7],5.05 h
